Values quoted from earlier work in patent US9012171B2, “Systems and methods for measuring translation activity in viable cells” (Anima Cell Metrology, Inc., priority 2007, dated 2015).

Tested on: premature termination codons (PTC)
Settings: genetic disorders with premature termination codons in the coding sequence of a critical protein

## O=C(O)c1cccc(-c2noc(-c3ccccc3F)n2)c1 [PTC124]
  required protein produced, relative to normal concentrations: 1-5%
